Converted amounts (≈) assume the structure as drawn.
Assays:
Assay in all cases: MIC, agar incorporation method
[1] = system: Moraxella M1; type: cell-based; details: S. No. 58, Moraxella M1
[2] = system: S. aureus (MRSA) 15187; type: cell-based, Staphylococcus aureus; details: S. No. 4, S. aureus (MRSA) 15187
[3] = system: S. pyogenes 19615; type: cell-based, Streptococcus pyogenes; details: S. No. 51, S. pyogenes 19615
[4] = system: S. pneumoniae 1256; type: cell-based, Streptococcus pneumoniae; details: S. No. 56, S. pneumoniae 1256
[5] = system: E. faecalis 29212; type: cell-based; details: S. No. 17, E. faecalis 29212
[6] = system: S. aureus (Smith 49951); type: cell-based, Staphylococcus aureus; details: S. No. 9, S. aureus (Smith 49951)
[7] = system: E. durans 581; type: cell-based; details: S. No. 24, E. durans 581
[8] = system: S. epidermidis 823; type: cell-based, Staphylococcus epidermidis; details: S. No. 12, S. epidermidis 823
[9] = system: E. faecalis 21777; type: cell-based; details: S. No. 18, E. faecalis 21777
[10] = system: S. pneumoniae AB4; type: cell-based, Streptococcus pneumoniae; details: S. No. 33, S. pneumoniae AB4
[11] = system: S. pneumoniae AB 21; type: cell-based, Streptococcus pneumoniae; details: S. No. 41, S. pneumoniae AB 21
[12] = system: S. pneumoniae ATCC 49619; type: cell-based, Streptococcus pneumoniae; details: S. No. 48, S. pneumoniae ATCC 49619
[13] = system: (MRSA) 562; type: cell-based, Staphylococcus aureus; details: S. No. 8, (MRSA) 562
[14] = system: Acinetobacter 9956; type: cell-based; details: S. No. 30, Acinetobacter 9956
[15] = system: S. epidermidis ATCC 12228; type: cell-based, Staphylococcus epidermidis; details: S. No. 10, S. epidermidis ATCC 12228
[16] = system: E. coli 25922; type: cell-based; details: S. No. 25, E. coli 25922
[17] = system: S. pneumoniae AB 30; type: cell-based, Streptococcus pneumoniae; details: S. No. 47, S. pneumoniae AB 30
[18] = system: S. pneumoniae AB 17; type: cell-based, Streptococcus pneumoniae; details: S. No. 40, S. pneumoniae AB 17
[19] = system: S. epidermidis 358; type: cell-based, Staphylococcus epidermidis; details: S. No. 14, S. epidermidis 358
[20] = system: S. aureus ATCC29213; type: cell-based, Staphylococcus aureus; details: S. No. 2, S. aureus ATCC29213
[21] = system: S. pneumoniae 1275; type: cell-based, Streptococcus pneumoniae; details: S. No. 57, S. pneumoniae 1275
[22] = system: S. pneumoniae AB-2; type: cell-based, Streptococcus pneumoniae; details: S. No. 31, S. pneumoniae AB-2
[23] = system: S. haemo ATCC 29970; type: cell-based; details: S. No. 15, S. haemo ATCC 29970
[24] = system: E. faecium 398(VRE); type: cell-based, Enterococcus faecium; details: S. No. 22, E. faecium 398(VRE)
[25] = system: S. aureus (MRSA) ST450; type: cell-based, Staphylococcus aureus; details: S. No. 6, S. aureus (MRSA) ST450
[26] = system: Moraxella cata. M2; type: cell-based; details: S. No. 59, Moraxella cata. M2
[27] = system: S. pneumoniae 1251; type: cell-based, Streptococcus pneumoniae; details: S. No. 54, S. pneumoniae 1251
[28] = system: S. aureus (MRSA) 21299; type: cell-based, Staphylococcus aureus; details: S. No. 5, S. aureus (MRSA) 21299
[29] = system: S. pyogenes 25147; type: cell-based, Streptococcus pyogenes; details: S. No. 52, S. pyogenes 25147
[30] = system: S. pneumoniae 217; type: cell-based, Streptococcus pneumoniae; details: S. No. 38, S. pneumoniae 217
[31] = system: S. pneumoniae AB 23; type: cell-based, Streptococcus pneumoniae; details: S. No. 43, S. pneumoniae AB 23
[32] = system: Serratia marcescens 12999; type: cell-based; details: S. No. 29, Serratia marcescens 12999
[33] = system: S. pneumoniae AB 16; type: cell-based, Streptococcus pneumoniae; details: S. No. 39, S. pneumoniae AB 16
[34] = system: S. epidermidis (MRSE)32965; type: cell-based, Staphylococcus epidermidis; details: S. No. 13, S. epidermidis (MRSE)32965
[35] = system: S. aureus SG 511; type: cell-based, Staphylococcus aureus; details: S. No. 3, S. aureus SG 511
[36] = system: S. pneumoniae ATCC 6303; type: cell-based, Streptococcus pneumoniae; details: S. No. 50, S. pneumoniae ATCC 6303

O=C(NC[C@H]1CN(c2ccc(N3CCN(c4ccc([N+](=O)[O-])s4)CC3)c(F)c2)C(=O)O1)C(Cl)Cl [compound 9, (S)—N-[[3-[-3-Fluoro-4-[N-1-(5-nitro-2-thienyl)-piperazinyl]phenyl] -2-oxo-5-oxazolidinyl]methyl]dichloroacetamide] gave an MIC [1] of 1 µg/mL (≈ 1.88 µM), an MIC [2] of 1 µg/mL (≈ 1.88 µM) and an MIC [3] of 0.5 µg/mL (≈ 0.939 µM). For the same molecule, the MIC [4] was 0.25 µg/mL (≈ 0.47 µM), the MIC [5] was 1 µg/mL (≈ 1.88 µM) and the MIC [6] was 0.5 µg/mL (≈ 0.939 µM). The MIC [7] was 0.5 µg/mL (≈ 0.939 µM), the MIC [8] was 0.5 µg/mL (≈ 0.939 µM) and the MIC [9] was 0.5 µg/mL (≈ 0.939 µM). The MIC [10] was 0.25 µg/mL (≈ 0.47 µM), the MIC [11] was 0.25 µg/mL (≈ 0.47 µM) and the MIC [12] was 0.25 µg/mL (≈ 0.47 µM). For the same molecule, the MIC [13] was 1 µg/mL (≈ 1.88 µM), the MIC [14] was over 8 µg/mL and the MIC [15] was 0.25 µg/mL (≈ 0.47 µM). It also gave an MIC [16] of over 8 µg/mL, an MIC [17] of 0.25 µg/mL (≈ 0.47 µM) and an MIC [18] of 0.25 µg/mL (≈ 0.47 µM). For the same molecule, the MIC [19] was 0.5 µg/mL (≈ 0.939 µM), the MIC [20] was 2 µg/mL (≈ 3.76 µM) and the MIC [21] was 0.25 µg/mL (≈ 0.47 µM). The MIC [22] was 0.25 µg/mL (≈ 0.47 µM), the MIC [23] was 0.5 µg/mL (≈ 0.939 µM) and the MIC [24] was 0.5 µg/mL (≈ 0.939 µM). The MIC [25] was 1 µg/mL (≈ 1.88 µM), the MIC [26] was 1 µg/mL (≈ 1.88 µM) and the MIC [27] was 0.25 µg/mL (≈ 0.47 µM). The MIC [28] was 1 µg/mL (≈ 1.88 µM), the MIC [29] was 0.5 µg/mL (≈ 0.939 µM) and the MIC [30] was 0.25 µg/mL (≈ 0.47 µM). The MIC [31] was 0.25 µg/mL (≈ 0.47 µM), the MIC [32] was over 8 µg/mL and the MIC [33] was 0.25 µg/mL (≈ 0.47 µM). For the same molecule, the MIC [34] was 0.5 µg/mL (≈ 0.939 µM), the MIC [35] was 0.5 µg/mL (≈ 0.939 µM) and the MIC [36] was 0.25 µg/mL (≈ 0.47 µM).
In the case of “(S)—N-[[3-[-3-Fluoro-4-[(5-nitro-2-thienyl)-3-methyl-1-piperazinyl]phenyl]-2-oxo-5-oxazolidinyl]methyl]acetamide [Compound No. 10]”, the MIC [1] is reported as 2 µg/mL, the MIC [2] is reported as 1 µg/mL and the MIC [3] is reported as 0.5 µg/mL. For the same molecule, the MIC [4] was 0.25 µg/mL, the MIC [5] was 1 µg/mL and the MIC [6] was 1 µg/mL. The MIC [7] was 0.5 µg/mL, the MIC [8] was 0.5 µg/mL and the MIC [9] was 1 µg/mL. It also gave an MIC [10] of 0.5 µg/mL, an MIC [11] of 0.5 µg/mL and an MIC [12] of 0.5 µg/mL. The MIC [13] was 1 µg/mL, the MIC [14] was over 8 µg/mL and the MIC [15] was 0.25 µg/mL. It also gave an MIC [16] of over 8 µg/mL, an MIC [17] of 0.25 µg/mL and an MIC [18] of 0.5 µg/mL. The MIC [19] was 0.5 µg/mL, the MIC [20] was 1 µg/mL and the MIC [21] was 0.25 µg/mL. It also gave an MIC [22] of 0.5 µg/mL, an MIC [23] of 0.25 µg/mL and an MIC [24] of 0.5 µg/mL. The MIC [25] was 1 µg/mL, the MIC [26] was 2 µg/mL and the MIC [27] was 0.5 µg/mL. For the same molecule, the MIC [28] was 1 µg/mL, the MIC [29] was 0.5 µg/mL and the MIC [30] was 0.5 µg/mL. For the same molecule, the MIC [31] was 0.5 µg/mL, the MIC [32] was over 8 µg/mL and the MIC [33] was 0.5 µg/mL. The MIC [34] was 0.5 µg/mL, the MIC [35] was 0.5 µg/mL and the MIC [36] was 0.5 µg/mL.
